Results as given in the supplement of paper PMC4862054.
Where “and” joins values, the source holds several entries; their conditions need not be identical. Equal values may be shown once.

Experiments:
Conditions in all cases: incubation time: 72 h
CAL-148 [1] = assay: normalised response (% of control), CellTiter-Glo; higher = more viable cells (100 = DMSO, 0 = benzethonium chloride kill control)
Procedure, shortened: (§1)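 After 72 h with compound in 384-well plates, breast cancer cell lines seeded as 20 µl suspension were read for CellTox Green fluorescence at 485/520 nm. CellTiter-Glo luminescence was then read after 10 min at room temperature. Compound was present at 5 concentrations in 10-fold steps over a 10,000-fold range set per compound, and plates were normalised to 0.1 % DMSO (100) and a positive kill control (0). Values are normalised signals, each at a single concentration.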

HCC1599 = assay: as above
Procedure, shortened: as §1

CAL-85-1 [2] = assay: as above
Procedure, shortened: as §1

HDQ-P1 [3] = assay: normalised viability (% of control), CellTiter-Blue; higher = more viable cells (about 100 = DMSO control)
Procedure: (§2)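 DSRT, CellTiter-Blue viability, 72 h incubation. Signal is normalised to DMSO and benzethonium chloride controls. Value is the normalised response at dose 7.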

CAL-51 [4] = assay: as above
Procedure: as §2

MDA-MB-453 [5] = assay: as above
Procedure: as §2

DU-4475 [6] = assay: as above
Procedure: as §2

CAL-148 [7] = assay: as above
Procedure: as §2

CAL-85-1 [8] = assay: as above
Procedure: as §2

HDQ-P1 [9] = assay: as above; remark: listed apart in the source
Procedure: (§3)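 DSRT, CellTiter-Blue viability, 72 h incubation. Signal is normalised to DMSO and benzethonium chloride controls. Value is the normalised response at dose 9.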

CAL-51 [10] = assay: as above; remark: listed apart in the source
Procedure: as §3

MDA-MB-453 [11] = assay: as above; remark: listed apart in the source
Procedure: as §3

DU-4475 [12] = assay: as above; remark: listed apart in the source
Procedure: as §3

CAL-148 [13] = assay: as above; remark: listed apart in the source
Procedure: as §3

CAL-85-1 [14] = assay: as above; remark: listed apart in the source
Procedure: as §3

Structure (SMILES): Cc1c(CN2CCN(C(=O)[C@H](C)O)CC2)sc2c(N3CCOCC3)nc(-c3cnc(N)nc3)nc12 [GDC-0980] (1000 nM)
- normalised response (CAL-148 [1]): 35.9%
- normalised response (HCC1599): 85.5%
- normalised response (CAL-85-1 [2]): 37.5%
- normalised viability (HDQ-P1 [3]): 24.7%
- normalised viability (CAL-51 [4]): 16.5%
- normalised viability (MDA-MB-453 [5]): 8.12%
- normalised viability (DU-4475 [6]): 50.2%
- normalised viability (CAL-148 [7]): 15.3%
- normalised viability (CAL-85-1 [8]): 27.1%

Structure (SMILES): O=C1c2c(O)ccc(O)c2C(=O)c2c(NCCNCCO)ccc(NCCNCCO)c21 [Mitoxantrone] (1000 nM)
- normalised viability (HDQ-P1 [9]): 48.9%
- normalised viability (CAL-51 [10]): 16.9%
- normalised viability (MDA-MB-453 [11]): 31%
- normalised viability (DU-4475 [12]): 0.48%
- normalised viability (CAL-148 [13]): 7.8%
- normalised viability (CAL-85-1 [14]): 34%

Structure (SMILES): COc1ccc(-c2cc3c(C)nc(N)nc3n([C@H]3CC[C@H](OCCO)CC3)c2=O)cn1 (10000 nM)
- normalised viability (HDQ-P1 [9]): 5.55%
- normalised viability (CAL-51 [10]): 2.53%
- normalised viability (MDA-MB-453 [11]): 2.5%
- normalised viability (DU-4475 [12]): 0.68%
- normalised viability (CAL-148 [13]): 1.46%
- normalised viability (CAL-85-1 [14]): 5.23%

Structure (SMILES): CNC(=O)c1cc(Oc2ccc(NC(=O)Nc3ccc(Cl)c(C(F)(F)F)c3)cc2)ccn1 [Sorafenib] (100 nM)
- normalised response (CAL-148 [1]): 110%
- normalised response (HCC1599): 98.7%
- normalised response (CAL-85-1 [2]): 107%
- normalised viability (HDQ-P1 [3]): 102% and 77.9%
- normalised viability (CAL-51 [4]): 106%
- normalised viability (MDA-MB-453 [5]): 90.8% and 101%
- normalised viability (DU-4475 [6]): 94.2% and 117%
- normalised viability (CAL-148 [7]): 108%
- normalised viability (CAL-85-1 [8]): 90.1% and 102%

Structure (SMILES): C[C@]12C=CC(=O)C=C1CC[C@@H]1[C@@H]2[C@@H](O)C[C@@]2(C)[C@H]1CC[C@]2(O)C(=O)CO [Prednisolone] (1000 nM)
- normalised response (CAL-148 [1]): 102%
- normalised response (HCC1599): 109%
- normalised response (CAL-85-1 [2]): 113%
- normalised viability (HDQ-P1 [3]): 113%
- normalised viability (CAL-51 [4]): 90.3%
- normalised viability (MDA-MB-453 [5]): 76.9%
- normalised viability (DU-4475 [6]): 119%
- normalised viability (CAL-148 [7]): 109%
- normalised viability (CAL-85-1 [8]): 101%

Structure (SMILES): Cc1ccc(Nc2nccc(N(C)c3ccc4c(C)n(C)nc4c3)n2)cc1S(N)(=O)=O [Pazopanib] (10000 nM)
- normalised viability (HDQ-P1 [9]): 80.7%
- normalised viability (CAL-51 [10]): 83.9%
- normalised viability (MDA-MB-453 [11]): 62.2%
- normalised viability (DU-4475 [12]): 86.8%
- normalised viability (CAL-148 [13]): 79.5%
- normalised viability (CAL-85-1 [14]): 100%

Structure (SMILES): CCC/C=C/C=C/C(=O)O[C@H]1/C(=C/C(=O)OC)C[C@H]2C[C@H]([C@@H](C)O)OC(=O)C[C@H](O)C[C@@H]3C[C@H](OC(C)=O)C(C)(C)[C@](O)(C[C@@H]4C/C(=C/C(=O)OC)C[C@H](/C=C/C(C)(C)[C@]1(O)O2)O4)O3 [Bryostatin 1] (10 nM)
- normalised response (CAL-148 [1]): 109%
- normalised response (HCC1599): 111%
- normalised response (CAL-85-1 [2]): 97.1%
- normalised viability (HDQ-P1 [3]): 118%
- normalised viability (CAL-51 [4]): 109%
- normalised viability (MDA-MB-453 [5]): 92.2%
- normalised viability (DU-4475 [6]): 76.5%
- normalised viability (CAL-148 [7]): 98.1%
- normalised viability (CAL-85-1 [8]): 98.7%

Structure (SMILES): CNC(=O)c1cc(Oc2ccc(NC(=O)Nc3ccc(Cl)c(C(F)(F)F)c3)cc2)ccn1 [Sorafenib] (1000 nM)
- normalised viability (CAL-51 [10]): 78.7% and 89.8%
- normalised viability (MDA-MB-453 [11]): 81% and 96.6%
- normalised viability (CAL-148 [13]): 96.7% and 105%
- normalised viability (CAL-85-1 [14]): 76.9% and 89.3%

Structure (SMILES): Nc1ccccc1NC(=O)c1ccc(CNc2nccc(-c3cccnc3)n2)cc1 [Mocetinostat] (10000 nM)
- normalised viability (HDQ-P1 [9]): 48.4%
- normalised viability (CAL-51 [10]): 19.3%
- normalised viability (MDA-MB-453 [11]): 11.9%
- normalised viability (DU-4475 [12]): 2.37%
- normalised viability (CAL-148 [13]): 10%
- normalised viability (CAL-85-1 [14]): 21%

Structure (SMILES): C[C@]12O[C@H](C[C@]1(O)CO)n1c3ccccc3c3c4c(c5c6ccccc6n2c5c31)CNC4=O [Lestaurtinib] (1000 nM)
- normalised viability (HDQ-P1 [9]): 77.9%
- normalised viability (CAL-51 [10]): 55%
- normalised viability (MDA-MB-453 [11]): 28.9%
- normalised viability (DU-4475 [12]): 2.87%
- normalised viability (CAL-148 [13]): 90.9%
- normalised viability (CAL-85-1 [14]): 39.7%

Structure (SMILES): Cc1nc(Nc2ncc(C(=O)Nc3c(C)cccc3Cl)s2)cc(N2CCN(CCO)CC2)n1 [Dasatinib] (100 nM)
- normalised response (CAL-148 [1]): 102%
- normalised response (HCC1599): 118%
- normalised response (CAL-85-1 [2]): 61.8%
- normalised viability (HDQ-P1 [3]): 15.8% and 11.4%
- normalised viability (CAL-51 [4]): 47.8% and 48.7%
- normalised viability (MDA-MB-453 [5]): 88.2% and 94.5%
- normalised viability (DU-4475 [6]): 95.1% and 108%
- normalised viability (CAL-148 [7]): 109% and 93.3%
- normalised viability (CAL-85-1 [8]): 56.4% and 53%

Structure (SMILES): COc1cc(CCc2cc(NC(=O)c3ccc(N4CC(C)NC(C)C4)cc3)n[nH]2)cc(OC)c1 (stereo not given) [AZD4547] (100 nM)
- normalised response (CAL-148 [1]): 104%
- normalised response (HCC1599): 107%
- normalised response (CAL-85-1 [2]): 96.2%
- normalised viability (HDQ-P1 [3]): 106%
- normalised viability (CAL-51 [4]): 101%
- normalised viability (MDA-MB-453 [5]): 78.1%
- normalised viability (DU-4475 [6]): 84.3%
- normalised viability (CAL-148 [7]): 106%
- normalised viability (CAL-85-1 [8]): 74.9%

Structure (SMILES): O=C(CCBr)N1CCN(C(=O)CCBr)CC1 [Pipobroman] (1000 nM)
- normalised response (CAL-148 [1]): 101%
- normalised response (HCC1599): 109%
- normalised response (CAL-85-1 [2]): 105%
- normalised viability (HDQ-P1 [3]): 91.2%
- normalised viability (CAL-51 [4]): 114%
- normalised viability (MDA-MB-453 [5]): 93.4%
- normalised viability (DU-4475 [6]): 98.1%
- normalised viability (CAL-148 [7]): 95.5%
- normalised viability (CAL-85-1 [8]): 88.8%

Structure (SMILES): C[C@]12O[C@H](C[C@]1(O)CO)n1c3ccccc3c3c4c(c5c6ccccc6n2c5c31)CNC4=O [Lestaurtinib] (100 nM)
- normalised response (CAL-148 [1]): 83.9%
- normalised response (HCC1599): 67.2%
- normalised response (CAL-85-1 [2]): 94.9%
- normalised viability (HDQ-P1 [3]): 87.8%
- normalised viability (CAL-51 [4]): 110%
- normalised viability (MDA-MB-453 [5]): 75.1%
- normalised viability (DU-4475 [6]): 79.6%
- normalised viability (CAL-148 [7]): 104%
- normalised viability (CAL-85-1 [8]): 99.5%

Structure (SMILES): Cc1ccc(Nc2nccc(N(C)c3ccc4c(C)n(C)nc4c3)n2)cc1S(N)(=O)=O [Pazopanib] (1000 nM)
- normalised response (CAL-148 [1]): 98.6%
- normalised response (HCC1599): 106%
- normalised response (CAL-85-1 [2]): 101%
- normalised viability (HDQ-P1 [3]): 99.8%
- normalised viability (CAL-51 [4]): 84.2%
- normalised viability (MDA-MB-453 [5]): 68.8%
- normalised viability (DU-4475 [6]): 107%
- normalised viability (CAL-148 [7]): 85.6%
- normalised viability (CAL-85-1 [8]): 87.6%

Structure (SMILES): Nc1ccccc1NC(=O)c1ccc(CNc2nccc(-c3cccnc3)n2)cc1 [Mocetinostat] (1000 nM)
- normalised response (CAL-148 [1]): 77%
- normalised response (HCC1599): 81.2%
- normalised response (CAL-85-1 [2]): 87.9%
- normalised viability (HDQ-P1 [3]): 90.1%
- normalised viability (CAL-51 [4]): 77.8%
- normalised viability (MDA-MB-453 [5]): 41.6%
- normalised viability (DU-4475 [6]): 39.2%
- normalised viability (CAL-148 [7]): 65.5%
- normalised viability (CAL-85-1 [8]): 68.7%

Structure (SMILES): O=C(Nc1c[nH]nc1-c1nc2ccc(CN3CCOCC3)cc2[nH]1)NC1CC1 [AT9283] (1000 nM)
- normalised viability (HDQ-P1 [3]): 50.3%
- normalised viability (CAL-51 [4]): 51.3%
- normalised viability (MDA-MB-453 [5]): 42%
- normalised viability (DU-4475 [6]): 10.3%
- normalised viability (CAL-148 [7]): 67.3%
- normalised viability (CAL-85-1 [8]): 55.4%
